Tests used:
[1] = biological target: T1, Solute carrier family 22 member 12 (Homo sapiens, UniProt Q96S37); experiment: Inhibition of human URAT1 expressed in xenopus oocyte assessed as inhibition of [14C]-labelled urate uptake at 50 uM after 60 mins by liquid scintillation counting; details: 1 h
T1 sequence (Q96S37 whole entry): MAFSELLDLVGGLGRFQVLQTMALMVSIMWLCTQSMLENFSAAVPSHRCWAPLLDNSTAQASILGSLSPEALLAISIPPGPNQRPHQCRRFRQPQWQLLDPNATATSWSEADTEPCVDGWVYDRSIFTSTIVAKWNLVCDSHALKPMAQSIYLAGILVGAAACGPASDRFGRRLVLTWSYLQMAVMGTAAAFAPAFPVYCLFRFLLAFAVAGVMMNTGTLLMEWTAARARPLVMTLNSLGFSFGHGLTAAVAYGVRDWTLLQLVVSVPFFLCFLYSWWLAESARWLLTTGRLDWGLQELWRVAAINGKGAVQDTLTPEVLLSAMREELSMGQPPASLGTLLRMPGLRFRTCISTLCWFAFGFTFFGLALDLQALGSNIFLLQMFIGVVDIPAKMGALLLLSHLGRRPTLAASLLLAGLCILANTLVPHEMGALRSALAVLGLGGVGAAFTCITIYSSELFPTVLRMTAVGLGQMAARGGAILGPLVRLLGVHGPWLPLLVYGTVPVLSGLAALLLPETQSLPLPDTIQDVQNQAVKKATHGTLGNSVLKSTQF

[2] = biological target: T1, Solute carrier family 22 member 12; experiment: Inhibition of human URAT1 expressed in xenopus oocyte assessed as inhibition of [14C]-labelled urate uptake after 60 mins by liquid scintillation counting

## CCc1oc2cc(O)ccc2c1C(=O)c1cc(Br)c(O)c(Br)c1
[1]
  inhibition at 50 µM: 99.8%

## CCc1oc2ccccc2c1C(=O)c1ccc(OC)cc1
[1]
  inhibition at 50 µM: 13.3%

## CCc1oc2ccc(OC)cc2c1C(=O)c1ccc(OC)cc1
[1]
  inhibition at 50 µM: 24.3%

## CCc1cc2c(C(=O)c3ccc(OC)cc3)c(OC)ccc2o1
[1]
  inhibition at 50 µM: 6.1%

## CCc1cc2cc(OC)cc(C(=O)c3ccc(OC)cc3)c2o1
[1]
  inhibition at 50 µM: 5.2%

## CCc1oc2cc(OC)ccc2c1C(=O)c1ccc(OC)cc1
[1]
  inhibition at 50 µM: 6.2%

## CCc1cc2c(C(=O)c3ccc(OC)cc3)cc(OC)cc2o1
[1]
  inhibition at 50 µM: 1.5%

## CCc1oc2c(OC)cccc2c1C(=O)c1ccc(OC)cc1
[1]
  inhibition at 50 µM: 17.2%

## CCc1cc2c(C(=O)c3ccc(OC)cc3)ccc(OC)c2o1
[1]
  inhibition at 50 µM: 7.4%

## CCc1oc2ccc(OC)cc2c1C(=O)c1ccc(O)cc1
[2]
  IC50: 2460 nM
[1]
  inhibition at 50 µM: 92.7%

## CCc1oc2ccc(O)cc2c1C(=O)c1ccc(OC)cc1
[1]
  inhibition at 50 µM: 12.9%

## CCc1oc2ccc(O)cc2c1C(=O)c1ccc(O)cc1
[2]
  IC50: 2490 nM
[1]
  inhibition at 50 µM: 96.5%

## CCc1cc2c(C(=O)c3ccc(O)cc3)c(OC)ccc2o1
[2]
  IC50: 6680 nM
[1]
  inhibition at 50 µM: 88.2%

## CCc1cc2c(C(=O)c3ccc(OC)cc3)c(O)ccc2o1
[1]
  inhibition at 50 µM: 28.7%

## CCc1cc2c(C(=O)c3ccc(O)cc3)c(O)ccc2o1
[1]
  inhibition at 50 µM: 51.5%

## CCc1cc2cc(OC)cc(C(=O)c3ccc(O)cc3)c2o1
[2]
  IC50: 33700 nM
[1]
  inhibition at 50 µM: 60%

## CCc1cc2cc(O)cc(C(=O)c3ccc(OC)cc3)c2o1
[1]
  inhibition at 50 µM: 9.3%

## CCc1cc2cc(O)cc(C(=O)c3ccc(O)cc3)c2o1
[1]
  inhibition at 50 µM: 41%

## CCc1oc2cc(OC)ccc2c1C(=O)c1ccc(O)cc1
[1]
  inhibition at 50 µM: 92.7%

## CCc1oc2cc(O)ccc2c1C(=O)c1ccc(OC)cc1
[1]
  inhibition at 50 µM: 48.3%

## CCc1oc2cc(O)ccc2c1C(=O)c1ccc(O)cc1
[2]
  IC50: 1130 nM
[1]
  inhibition at 50 µM: 92.1%

## CCc1cc2c(C(=O)c3ccc(O)cc3)cc(OC)cc2o1
[2]
  IC50: 19700 nM
[1]
  inhibition at 50 µM: 62.4%

## CCc1cc2c(C(=O)c3ccc(OC)cc3)cc(O)cc2o1
[1]
  inhibition at 50 µM: 12.4%

## CCc1cc2c(C(=O)c3ccc(O)cc3)cc(O)cc2o1
[1]
  inhibition at 50 µM: 41%

## CCc1oc2c(O)cccc2c1C(=O)c1ccc(OC)cc1
[1]
  inhibition at 50 µM: 18.2%

## CCc1cc2c(C(=O)c3ccc(OC)cc3)ccc(O)c2o1
[1]
  inhibition at 50 µM: 0.8%

## CCc1cc2c(C(=O)c3ccc(O)cc3)ccc(O)c2o1
[2]
  IC50: 3940 nM
[1]
  inhibition at 50 µM: 93.8%

## CCc1oc2ccc(OC)cc2c1C(=O)c1cc(Br)c(O)c(Br)c1
[1]
  inhibition at 50 µM: 99.9%

## CCc1oc2ccc(O)cc2c1C(=O)c1cc(Br)c(O)c(Br)c1
[2]
  IC50: 189 nM
[1]
  inhibition at 50 µM: 99.9%

## CCc1cc2c(C(=O)c3cc(Br)c(O)c(Br)c3)c(OC)ccc2o1
[2]
  IC50: 358 nM
[1]
  inhibition at 50 µM: 99.6%

## CCc1cc2c(C(=O)c3cc(Br)c(O)c(Br)c3)c(O)ccc2o1
[2]
  IC50: 83 nM
[1]
  inhibition at 50 µM: 99.9%

## CCc1cc2cc(OC)cc(C(=O)c3cc(Br)c(O)c(Br)c3)c2o1
[1]
  inhibition at 50 µM: 99%

## CCc1cc2cc(O)cc(C(=O)c3cc(Br)c(O)c(Br)c3)c2o1
[1]
  inhibition at 50 µM: 99.8%

## CCc1oc2cc(OC)ccc2c1C(=O)c1cc(Br)c(O)c(Br)c1
[1]
  inhibition at 50 µM: 99.9%

## CCc1cc2c(C(=O)c3cc(Br)c(O)c(Br)c3)cc(Br)c(O)c2o1
[2]
  IC50: 177 nM
[1]
  inhibition at 50 µM: 99.9%

## CCc1oc2cc(Br)c(O)c(Br)c2c1C(=O)c1ccc(OC)cc1
[2]
  IC50: 23500 nM
[1]
  inhibition at 50 µM: 76.5%

## CCc1oc2c(Br)c(O)c(Br)cc2c1C(=O)c1ccc(OC)cc1
[2]
  IC50: 667 nM
[1]
  inhibition at 50 µM: 99.8%

## CCc1cc2c(C(=O)c3ccc(OC)cc3)cc(Br)c(O)c2o1
[2]
  IC50: 772 nM
[1]
  inhibition at 50 µM: 99.3%

## CCc1oc2ccccc2c1C(=O)c1ccc(O)cc1 [BENZARONE]
[1]
  inhibition at 50 µM: 90.8%

## CCc1oc2ccccc2c1C(=O)c1cc(Br)c(O)c(Br)c1 [BENZBROMARONE]
[1]
  inhibition at 50 µM: 99.9%

## CCCN(CCC)S(=O)(=O)c1ccc(C(=O)O)cc1 [PROBENECID]
[1]
  inhibition at 50 µM: 35.7%
